Measured values from patent publication US20230331803A1, “CO-AGONISTS OF THE GLP-1 AND AMYLIN RECEPTORS” (priority 2020, published 2023).
“Also recorded” adds a separate entry of the source. Like-named read-outs stand apart in the source and are kept apart here. Starred links: 1 amine or outer side, 2 acyl side, 3 side chain; linkers in the order of their positions; H or OH if unused. Non-standard residues stand in square brackets, D forms with d. Groups on a side chain read outwards from the residue. *: point of attachment. Butyryl(4-SO2NHCO(CH2)16Tz) = O=C(CCCCCCCCCCCCCCCCc1nnn[nH]1)NS(=O)(=O)CCCC(=O)*; C20 diacid = O=C(O)CCCCCCCCCCCCCCCCCCC(=O)*; C18 diacid = O=C(O)CCCCCCCCCCCCCCCCC(=O)*; C16 diacid = O=C(O)CCCCCCCCCCCCCCC(=O)*; γGlu = O=C(O)[C@H](CCC(=O)[*:2])N[*:1]; Desaminohistidyl = O=C(CCc1c[nH]cn1)*; εLys = N[C@@H](CCCCN[*:1])C(=O)[*:2]; Trx = NC[C@H]1CC[C@H](C(=O)O)CC1; AEEA = NCCOCCOCC(=O)O; Aib = CC(C)(N)C(=O)O

B1: H-Aib-EGTFTSDVSSYLEEQAAREFIAWLVRGRP-K([2-[2-[2-[[2-[2-[2-[[(4S)-4-Carboxy-4-[[4-[(19-Carboxynonadecanoylamino)Methyl]Cyclohexanecarbonyl]Amino]Butanoyl]Amino]Ethoxy]Ethoxy]Acetyl]Amino]Ethoxy]Ethoxy]A … (peptide)
peptide: H[Aib]EGTFTSDVSSYLEEQAAREFIAWLVRGRPK([AEEA-AEEA-γGlu-4‑(aminomethyl)cyclohexanecarbonyl-C20 diacid])GGGGEASELSTAALGRLSAELHELATLPRTETGSGSP-NH2
B2: HWEGTFTSDVSSYLEEQAAR-K([2-[2-[2-[[2-[2-[2-[[(4S)-4-Carboxy-4-[[4-[(19-Carboxynonadecanoylamino)Methyl]Cyclohexanecarbonyl]Amino]Butanoyl]Amino]Ethoxy]Ethoxy]Acetyl]Amino]Ethoxy]Ethoxy]Acetyl])-FIEWLVR … (peptide)
peptide: HWEGTFTSDVSSYLEEQAARK([AEEA-AEEA-γGlu-4‑(aminomethyl)cyclohexanecarbonyl-C20 diacid])FIEWLVRGRGEGGGGGASELSTAALGRLSAELHELATLPRTETGSGSP-NH2
B3: H-Aib-EGTFTSDVSSYLEEQAAREFIAWLVRGR-K([(2S)-2-Amino-6-[[2-[2-[2-[[2-[2-[2-[[(4S)-4-Carboxy-4-[[4-[(19-Carboxynonadecanoylamino)Methyl]Cyclohexanecarbonyl]Amino]Butanoyl]Amino]Ethoxy]Ethoxy]Acetyl]Amino … (peptide)
peptide: H[Aib]EGTFTSDVSSYLEEQAAREFIAWLVRGRK([εLys-AEEA-AEEA-γGlu-4‑(aminomethyl)cyclohexanecarbonyl-C20 diacid])GGGGEASELSTAALGRLSAELHELATLPRTETGSGSP-NH2
B4: H-Aib-EGTFTSDVS-K([2-[2-[2-[[2-[2-[2-[[(4S)-4-Carboxy-4-[[4-[(19-Carboxynonadecanoylamino)Methyl]Cyclohexanecarbonyl]Amino]Butanoyl]Amino]Ethoxy]Ethoxy]Acetyl]Amino]Ethoxy]Ethoxy]Acetyl])-YLEEQAAREFIA … (peptide)
peptide: H-H[Aib]EGTFTSDVSK([AEEA-AEEA-γGlu-4‑(aminomethyl)cyclohexanecarbonyl-C20 diacid])YLEEQAAREFIAWLVRGRGGGGGEASELSTAALGRLSAELHELATLPRTETGSGSP-NH2

Assays:
human GLP-1 receptor = molecular target: T1, human GLP-1 receptor (Homo sapiens, UniProt P43220); assay: Human GLP-1 receptor in vitro potency assay (CRE-luciferase reporter, BHK cells); assay type: cell-based; details: for Ability to agonise the GLP-1 receptor, in words: Tables 4a-4c
T1 construct: expressed in transfected cells; host or cells: BHK (Baby Hamster Kidney) cells, clone BHK 467-12A KZ-10, stably transfected, with CRE-luciferase reporter
T1 sequence (P43220 24-463): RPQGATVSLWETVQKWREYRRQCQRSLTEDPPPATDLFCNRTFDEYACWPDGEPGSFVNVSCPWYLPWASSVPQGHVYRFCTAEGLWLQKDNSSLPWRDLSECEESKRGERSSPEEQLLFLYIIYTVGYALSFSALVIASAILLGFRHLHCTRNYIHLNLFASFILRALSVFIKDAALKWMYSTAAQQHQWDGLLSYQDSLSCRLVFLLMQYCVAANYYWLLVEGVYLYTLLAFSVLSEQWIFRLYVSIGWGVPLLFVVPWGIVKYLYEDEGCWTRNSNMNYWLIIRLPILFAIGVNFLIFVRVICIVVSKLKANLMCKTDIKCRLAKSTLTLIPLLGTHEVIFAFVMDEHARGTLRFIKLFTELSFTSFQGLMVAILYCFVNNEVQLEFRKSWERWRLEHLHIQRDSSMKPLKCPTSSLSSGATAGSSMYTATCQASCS
Procedure: It is thus possible to measure GLP-1 receptor activity using a CRE-luciferase reporter gene introduced into Baby Hamster Kidney (BHK) cells co-expressing the GLP-1 receptor.
Cells were aliquoted and stored at -180° C. until use.
Plates were sealed and incubated at room temperature with gentle shaking for 30 minutes while protected from light. Luminescence was detected on a luminescence plate reader e.g. a Synergy 2 (BioTek).

[1] = Pharmacokinetic studies in Beagle dogs after oral administration of SNAC-based tablets; assay type: in vivo
Procedure: To be able to evaluate oral exposure following tablet dosing, tablet compositions comprising the test substance and SNAC (sodium N-(8-(2-hydroxybenzoyl)amino)caprylate) were prepared by mixing test substance with roller compacted SNAC and magnesium stearate as, e.g., described in WO 2019/149880. The amount of SNAC in the tablet composition was 100-300 mg, the amount of magnesium stearate in the tablet composition was 7.7 mg, and the target amount of each test substance in the tablet composition was 3-4 mg.
Pharmacokinetic (PK) studies in Beagle dogs were conducted to determine the exposure of the GLP-1 receptor-amylin receptor co-agonist after peroral administration.
For the pharmacokinetic studies male Beagle dogs were used, 2-7, or 1 to 5, years of age and weighing approximately 10-15, such as 10-12, kg at the start of the studies. The dogs were group housed in pens (12 hours light: 12 hours dark),and fed individually and restrictedly once daily with Royal Canin Medium Adult dog (Royal Canin Products, China Branch, or Brogaarden A/S, Denmark). Exercise and group social were permitted daily, whenever possible. The dogs were used for repeated pharmacokinetic studies with a suitable wash-out period between successive dosing. An appropriate acclimatisation period was given prior to initiation of the first pharmacokinetic study. All handling, dosing and blood sampling of the animals were performed by trained and skilled staff. Before the studies the dogs were fasted overnight and from 0 to 4 h after dosing. Besides, the dogs were restricted to water 1 hour before dosing until 4 hours after dosing, but otherwise have ad libitum access to water during the whole period.
The tablets used for the p.o. studies described herein were immediate release SNAC-based tablets dosed orally.
The tablets were administered in the following manner: 10 min prior to tablet administration the dogs may be dosed subcutaneously with approximately 3 nmol/kg of SEQ ID NO: 237, tablets were placed in the back of the mouth of the dog to prevent chewing. The mouth was then closed, and 10 mL of tap water was given by a syringe or gavage to facilitate swallowing of the tablet.
Blood was sampled at predefined time points for up till 240 hours, such as up till 10 hr, post dosing to adequately cover the full plasma concentration-time absorption profile of the GLP-1 agonist.
For each blood sampling time point approximately 0.8 mL of whole blood was collected in a 1.5 mL EDTA coated tube, and the tube was gently turned to allowing mixing of the sample with the EDTA. Blood samples (for example 0.8 mL) were collected in EDTA buffer (8 mM) and then centrifuged at 4° C. and 2000 G for 10 minutes. Plasma was pipetted into Micronic tubes on dry ice, and kept at -20° C. until analysis.
Blood samples were taken as appropriate, for example from a venflon in the cephalic vein in the front leg for the first 2 hours and then with syringe from the jugular vein for the rest of the time points (the first few drops were allowed to drain from the venflon to avoid heparin saline from the venflon in the sample).
Plasma concentration of the GLP-1 receptor-amylin receptor co-agonists were determined using LCMS. Individual plasma concentration-time profiles were analysed by a non-compartmental model in WinNonlin v. 5.0 or Phoenix v. 6.2 or 6.3 (Pharsight Inc., Mountain View, CA, USA), or other relevant software for PK analysis.
The individual plasma concentration-time profiles were analysed by non-compartmental analysis (NCA).

[2] = molecular target: T2, human amylin receptor (hAmyR3) (Homo sapiens, UniProt O60896+P30988); assay: Human amylin receptor in vitro potency assay (CRE-luciferase reporter, BHK cells); assay type: cell-based; details: for EC50: read-out: Human AmyR3 potency [EC50 (pM)]; for Ability to agonise the amylin receptor, in words: Tables 4a-4c;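 for all read-outs here: BHK cells expressing human calcitonin receptor plus RAMP3 (amylin-3 receptor) with a CRE-luciferase reporter, agonist activity read as luminescence from cAMP-driven transcription, 7-point serial dilutions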
T2 construct: host or cells: BHK cells (Hollex-1 line: human calcitonin receptor (a) + CRE-Luc), further transfected with human RAMP3
T2 sequence (P30988 25-474): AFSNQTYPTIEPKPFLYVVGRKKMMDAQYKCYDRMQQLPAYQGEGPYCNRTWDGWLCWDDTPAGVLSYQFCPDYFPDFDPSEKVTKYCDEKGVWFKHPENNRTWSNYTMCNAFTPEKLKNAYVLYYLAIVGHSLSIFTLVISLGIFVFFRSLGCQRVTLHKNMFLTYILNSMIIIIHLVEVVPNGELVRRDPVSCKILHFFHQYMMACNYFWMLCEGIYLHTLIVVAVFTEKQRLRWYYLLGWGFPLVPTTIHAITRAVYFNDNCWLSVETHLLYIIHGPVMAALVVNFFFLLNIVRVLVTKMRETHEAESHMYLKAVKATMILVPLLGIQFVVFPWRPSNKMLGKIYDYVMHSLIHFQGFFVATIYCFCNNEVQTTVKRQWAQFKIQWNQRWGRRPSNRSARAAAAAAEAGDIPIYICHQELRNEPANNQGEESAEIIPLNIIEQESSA
T2 sequence (O60896 24-148): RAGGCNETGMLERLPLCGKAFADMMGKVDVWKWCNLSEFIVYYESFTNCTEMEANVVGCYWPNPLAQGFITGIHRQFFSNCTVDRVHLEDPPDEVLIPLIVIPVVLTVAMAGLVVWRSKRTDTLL

Sprague Dawley (SD) rats = assay: Acute food intake in ad libitum fed rats after a single subcutaneous administration; assay type: in vivo, rat; details: for Food intake relative to vehicle (%) 0-24 hr, 10 nmol/kg / Food intake relative to vehicle (%) 24-48 hr, 10 nmol/kg: rat, single administration; for Inhibition of food intake, in words: rats, 10 nmol/kg;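 for all read-outs here: food intake monitored in the HM2 system, three rats per cage kept on a reversed light cycle, with food and water freely available after the subcutaneous dose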
Description: Sprague Dawley (SD) rats from Taconic Europe, Denmark were used for the acute food intake experiments, wherein the principles of laboratory animal care were followed.
The rats arrived at least 10-14 days before the start of the experiment to allow acclimatisation to experimental settings. During this period, the animals were handled at least 2 times. Immediately upon arrival, rats were put on a reversed light cycle (dark from 11am - 11pm) and put in the HM2 system and ID chipped. Three rats were housed in each cage. […] The rats were dosed once according to body weight with a 0.01-3 mg/kg solution administered subcutaneously (sc). The time of dosing was recorded for each group.
After dosing, the rats were returned to their home cages, where they had access to food and water. […] At the end of the experimental session, the animals were euthanised.

[3] = Table 4a, BHK cells expressing human GLP-1R, CRE-Luc, 3 hours, read-out: Human GLP-1R potency [EC50 (pM)]
[4] = Table 4a, BHK hAmyR3/CRE-Luc cells, 3 hours
[5] = Table 4c, further comparator compounds
[6] = dogs, oral administration (tablet)

| Molecule | EC50 (human GLP-1 receptor; [3]) | EC50 [2, 4] | Food intake relative to vehicle (%) 0-24 hr, 10 nmol/kg (Sprague Dawley (SD) rats; Table 6a) | Food intake relative to vehicle (%) 24-48 hr, 10 nmol/kg (Sprague Dawley (SD) rats; Table 6a) | AUC/D [1, 6] | Cmax/D [1, 6] | Tmax [1, 6] | T½ [1, 6] | further results |
| --- | --- | --- | --- | --- | --- | --- | --- | --- | --- |
| H-H[Aib]EGTFTSDVSSYLEEQAAREFIAWLVRGRK([AEEA-AEEA-γGlu-Trx-C20 diacid])GGGGEASELSTAALGRLSAELHELATLPRTETGSGSP-NH2 [Compound 0120] | 9.1 pM | 10.6 pM | 53% | 55% |  |  |  |  | Ability to agonise the GLP-1 receptor, in words (human GLP-1 receptor): fully potent on both receptors; T½ ([1]; male, Beagle, dog, in vivo, po): 22 h; half-life ([1]; male, Beagle, dog, in vivo, po, T½ (hr)): 24 h; Ability to agonise the amylin receptor, in words [2]: fully potent on both receptors; Food intake relative to vehicle (%) 0-24 hr, 10 nmol/kg (Sprague Dawley (SD) rats; Table 6b): 53%; Food intake relative to vehicle (%) 24-48 hr, 10 nmol/kg (Sprague Dawley (SD) rats; Table 6b): 55%; Inhibition of food intake, in words (Sprague Dawley (SD) rats): significant inhibition of food intake within the first 48 hours |
| H-H[Aib]EGTFTSDVSSYLEEQAAREIFAWLVRGRK([AEEA-AEEA-γGlu-Trx-C20 diacid])GGGGEASELSTAALGRLSAELHELATLPRTETGSGSP-NH2 [Comparator compound 0167, reference compound] |  |  |  |  |  |  |  |  | EC50 (human GLP-1 receptor; [5]): ≥ 10000 pM; Ability to agonise the GLP-1 receptor, in words (human GLP-1 receptor): impaired their ability to agonise (activate) the GLP-1 receptor; also recorded: impaired GLP-1 activity; EC50 [2, 5]: 10.9 pM; Ability to agonise the amylin receptor, in words [2]: full amylin potency; Food intake relative to vehicle (%) 0-24 hr, 10 nmol/kg (Sprague Dawley (SD) rats; Table 6b): 85%; Food intake relative to vehicle (%) 24-48 hr, 10 nmol/kg (Sprague Dawley (SD) rats; Table 6b): 73%; Inhibition of food intake, in words (Sprague Dawley (SD) rats): significantly less than in the case of compound 0120 |
| H-H[Aib]EGTFTSDVSSYLEGQAAK([AEEA-AEEA-γGlu-C18 diacid])EFIAWLVRGRGGGEASELSTAALGRLSAELHELATLPRTETGSGSP-NH2 [Compound 0007] | 13.3 pM | 9.4 pM | 67% | 105% |  |  |  |  |  |
| Desaminohistidyl-AEGTFTSDVSSYLEEQAAREFIAWLVRGRK([AEEA-AEEA-γGlu-Trx-C20 diacid])EASELSTAALGRLSAELHELATLPRTETGSGSP-NH2 [Compound 0035] | 16.7 pM | 16 pM | 76% | 95% |  |  |  |  |  |
| HWEGTFTSDVSSYLEEK([εLys-AEEA-AEEA-γGlu-Trx-C20 diacid])AAREFIEWLVRGRGEASELSTAALGRLSAELHELATLPRTETGSGSP-NH2 [Compound 0434] | 11.8 pM | 13.9 pM | 39% | 105% |  |  |  |  |  |
| H-H[Aib]EGTFTSDVSSYLEEQAAREFIAWLVRGRK(Butyryl(4-SO2NHCO(CH2)16Tz))EASELSTAALGRLSAELHELATLPRTETGSGSP-NH2 [Compound 0103] | 28.1 pM | 11.6 pM | 80% | 80% |  |  |  |  |  |
| H-H[Aib]EGTFTSDVSSYLEGQAAK([AEEA-AEEA-γGlu-C18 diacid])EFIAWLVRGRGGGGGGGGGEASELSTAALGRLSAELHELATLPRTETGSGSP-NH2 [Compound 0052] | 17 pM | 19.4 pM | 42% | 86% |  |  |  |  |  |
| H-H[Aib]EGTFTSDVSSYLEEK([AEEA-AEEA-γGlu-C16 diacid])AAREFIAWLVRGRGGGGGEASELSTAALGRLSAELHELATLPRTETGK([AEEA-AEEA-γGlu-C16 diacid])GSP-NH2 [Compound 0411] | 3.5 pM | 45.9 pM | 81% | 88% |  |  |  |  |  |
| H-H[Aib]EGTFTSDVSK([AEEA-AEEA-γGlu-C20 diacid])YLEEQAAREFIAWLVRGRGGGGGEASELSTAALGRLSAELHELATLPRTETGSGSP-NH2 [Compound 0565] | 6.4 pM | 6.2 pM | 39% | 42% |  |  |  |  |  |
| B1 |  |  | 73% | 53% | 3.25 kg·h/L | 0.12 kg/L | 3.0 h | 25 h |  |
| B2 |  |  | 71% | 46% | 19.54 kg·h/L | 0.36 kg/L | 1.8 h | 40 h |  |
| B3 |  |  | 47% | 44% | 6.53 kg·h/L | 0.14 kg/L | 2.0 h | 23 h |  |
| B4 |  |  | 50% | 45% | 11.10 kg·h/L | 0.45 kg/L | 2.0 h | 27 h |  |
